Measurements from US8273743B2, “Quinoxaline inhibitors of the hedgehog signalling” (Curis, Inc., priority 2004, dated 2012).

Tested on: hedgehog pathway signaling (10T1/2-GliLuc [s12] or HEPM-GliLuc [MZ24] Gli reporter cell lines)
Test: Hedgehog signalling inhibition assay (Gli-luciferase reporter gene assay)
Type: cell-based
Details: average IC50; either mouse [s12] or human [MZ24] Gli reporter cell lines; with Sonic hedgehog-octyl conjugate, 24 hrs
Method: Mouse Reporter Cell lines—10T1/2-GliLuc [s12] cells (derived from cell line C3H10T1/2 ATCC #CCL-226); Mouse Embryonic Fibroblasts); Growth Medium: Dulbecco's modified Eagles' Medium (DMEM) supplemented with 10% Fetal Bovine Serum (FBS), 10 units/mL penicillin, 100 ug/mL streptomycin, 2 mM glutamine, and 10 mM HEPES.
Human Reporter Cell lines—HEPM-GliLuc [MZ24]—cells (derived from HEPM, Human Embryonic Palatal Mesenchyme ATCC #CRL-1486); Growth Medium: Minimum Essential Medium (MEM; with Earle's salts) supplemented with 10-20% Fetal Bovine Serium (FBS), 10 units/mL penicillin, 100 ug/mL streptomycin, 2 mM glutamine, and 10 mM HEPES pH 7.2.
Sonic hedgehog—recombinant human SHh N-terminal octylated conjugate.
Microtiter Plates (MTPs)—For the Luciferase assay cells are plated in 96-well MTPs (White, Flat-bottom, Clear-View).
Luciferase-Assay Medium—DMEM supplemented with 0.5% FBS, 10 units/mL penicillin, 100 ug/mL streptomycin, 2 mM glutamine, and 10 mM HEPES pH 7.2.
PBS/Ca/Mg Mix—Phosphate Buffered Saline (PBS) supplemented with 0.5 mM CaCl2 and 1 mM MgCl2.
S12 and MZ24 cells genetically modified to contain a luciferase reporter gene driven by the hedgehog-responsive Gli promoter were maintained on tissue culture dishes in Growth Medium at 37° C. and 5% CO2. Cell cultures were passaged at sub-confluency at every 3-4 days. (1:20 to 1:40 for s12; 1:3 to 1:10 for MZ24). Cells were harvested and diluted in Growth Medium such that they could be plated in a microtitre plate at 10,000-20,000 cells (s12), or 20,000-30,000 cells (MZ24), per 100 ul, per well. Cells were further incubated for ˜24-48 hours at 37° C. and 5% CO2.
After ˜24-48 hour incubation the Growth Medium in the microtitre plates was replaced by Luciferase-Assay Medium (100 ul per well), with and without Sonic hedgehog-octyl conjugate, at 0.1-0.3 ug/ml (S12) or 0.5-1.0 ug/ml (MZ24), and test compounds. Cells were then further incubated for and additional 24 hrs.
Microtitre plates were then subjected to the luciferase reporter gene assay kit (LucLite™), with modifications to the manufacturer's procedure wherein medium was removed and the substrate was reconstituted with 1:1 PBS/Ca/Mg:lysis buffer instead of straight lysis buffer. In brief, the PBS/Ca/Mg was mixed 1:1 with lysis buffer and 10 mL were added to each substrate vial (of the 1000-assay kit). Then the assay media from the microtitre plate was discarded, and 100 ul of this substrate mix was added to each well. Plates were incubated at room temperature for 20-30 minutes and then the Relative Light Units (RLUS) representing the relative expression level of the luciferase reporter gene were determined with a Topcount reader (Packard) or an Analyst reader (Molecular Devices).
The following table 1 represents the average IC50 values for particular compounds tested according to the procedures above using either mouse [s12] or human [MZ24] Gli reporter cell lines indicating inhibition of hedgehog pathway signaling.

| SMILES | IC50 [nM] |
| --- | --- |
| Cc1nc(C(F)(F)F)ccc1C(=O)Nc1ccc(Cl)c(-c2cnc3c(F)cc(F)cc3n2)c1 [compound 39] | < 1000 |
| Cc1cc(C)c2nc(-c3cc(NC(=O)c4ccc(C(F)(F)F)nc4C)ccc3Cl)cnc2c1 [compound 48] | < 1000 |
| Cc1nc(C(F)(F)F)ccc1C(=O)Nc1ccc(Cl)c(-c2cnc3c(C)cccc3n2)c1 [compound 47] | < 1000 |
| O=C(Nc1ccc(Cl)c(-c2cnc3ccccc3n2)c1)C1CC1 [compound 27] | < 1000 |
| CC(C)CC(=O)Nc1ccc(Cl)c(-c2cnc3ccccc3n2)c1 [compound 56] | < 1000 |
| Cc1cc2ncc(-c3cc(NC(=O)c4ccc(C(F)(F)F)nc4C)ccc3Cl)nc2cc1C [compound 42] | < 1000 |
| O=C(Nc1ccc(Cl)c(-c2cnc3ccccc3n2)c1)c1cccc2c1OCCO2 [compound 44] | < 1000 |
| CS(=O)(=O)c1ccc(C(=O)Nc2ccc(Cl)c(-c3cnc4ccccc4n3)c2)cc1 [compound 18] | < 1000 |
| O=C(Nc1ccc(Cl)c(-c2cnc3ccccc3n2)c1)c1ccc2cc[nH]c2c1 [compound 19] | < 1000 |
| O=C(Nc1ccc(Cl)c(-c2cnc3ccccc3n2)c1)c1cccnc1Cl [compound 37] | < 1000 |
| COc1cc(OC)cc(C(=O)Nc2ccc(Cl)c(-c3cnc4c(C)cccc4n3)c2)c1 [compound 46] | < 1000 |
| O=C(Nc1ccc(Cl)c(-c2cnc3ccccc3n2)c1)c1cccnc1F [compound 6] | < 1000 |
| O=C(Nc1ccc(Cl)c(-c2cnc3ccccc3n2)c1)c1ccc(Cl)nc1 [compound 36] | < 1000 |
| O=C(Nc1ccc(Cl)c(-c2cnc3ccccc3n2)c1)c1ccc(Cl)nc1Cl [compound 15] | < 1000 |

Further lines, results first:

| IC50 [nM] | SMILES |
| --- | --- |
| < 1000 | CS(=O)(=O)c1cccc(C(=O)Nc2ccc(Cl)c(-c3cnc4ccccc4n3)c2)c1 [compound 24] |
| < 1000 | O=C(Nc1ccc(Cl)c(-c2cnc3ccccc3n2)c1)c1cccc(Cl)c1 [compound 33] |
| < 1000 | Cc1ccc2ncc(-c3cc(NC(=O)c4ccc(C(F)(F)F)nc4C)ccc3Cl)nc2c1C [compound 45] |
| < 1000 | O=C(Nc1ccc(Cl)c(-c2cnc3ccccc3n2)c1)c1cccs1 [compound 38] |
| < 1000 | COc1cc(OC)cc(C(=O)Nc2ccc(Cl)c(-c3cnc4ccc(C)c(C)c4n3)c2)c1 [compound 54] |
| < 1000 | Cc1nc(C(F)(F)F)ccc1C(=O)Nc1ccc(Cl)c(-c2cnc3c(F)c(F)ccc3n2)c1 [compound 40] |
| < 1000 | Cc1ccsc1C(=O)Nc1ccc(Cl)c(-c2cnc3ccccc3n2)c1 [compound 7] |
| < 1000 | Cc1nc(C(F)(F)F)ccc1C(=O)Nc1ccc(Cl)c(-c2cnc3cc(F)c(F)cc3n2)c1 [compound 41] |
| < 1000 | Cc1cc(C(=O)Nc2ccc(Cl)c(-c3cnc4ccccc4n3)c2)c(C(F)(F)F)o1 [compound 31] |
| < 1000 | O=C(Nc1ccc(Cl)c(-c2cnc3ccccc3n2)c1)c1ccc(Cl)cc1 [compound 34] |
| < 1000 | O=C(Nc1ccc(Cl)c(-c2cnc3ccccc3n2)c1)c1cccnc1 [compound 35] |
| < 1000 | Cc1nc(C(F)(F)F)ccc1C(=O)Nc1ccc(Cl)c(-c2cnc3cc(F)ccc3n2)c1 [compound 43] |
| < 1000 | Cc1nc(C(F)(F)F)ccc1C(=O)Nc1ccc(Cl)c(-c2cnc3cccnc3n2)c1 [compound 55] |
